In EPA's ToxValDB 9.5 (doi:10.2903/j.efsa.2017.4700):
Values after ≈ are worked out from the molar mass of the structure shown. Values joined by “and” are separate entries in the source; they are usually repeats but may differ in a detail not shown here. Identical values can stand only once.

Experiments:
[1] = reproduction developmental; clinical signs
[2] = system: Apis mellifera; settings: acute, mortality
[3] = system: Canidae; settings: Dog Other, hematological
[4] = system: Colinus virginianus
[5] = system: Daphnia magna; settings: chronic/long-term; duration: 21 days; growth
[6] = system: Oncorhynchus mykiss; settings: acute; mortality
[7] = system: Pimephales promelas; settings: chronic/long-term; other
[8] = system: Rattus norvegicus
[9] = system: Tagia sp.; settings: chronic/long-term; reproduction
[10] = system: Typhlodromus pyri; assay: LR50; higher = less toxic; settings: not reported; mortality

For `CN(C)C(=S)SSC(=S)N(C)C` [Bis(dimethylaminothiocarbonyl) disulfide], which NOAEL [1] is on record?
The NOAEL was 1.6 mg/kg-day.

What about the LD50 ([2]; dermal) of the same compound?
The LD50 was > 100 µg/piece.

And the LD50 ([2]; oral, unspecified)?
Its LD50 is > 107 µg/piece.

And the NOAEL ([3]; chronic, duration: 1 years)?
The NOAEL was 0.84 mg/kg-day.

And the NOAEL ([3]; subchronic, duration: 90 days)?
The NOAEL was 2 mg/kg-day.

And the LD50 ([4]; acute, oral, mortality)?
The LD50 was 930 mg/kg-day.

And the NOEC ([4]; reproduction developmental)?
Its NOEC is 37.5 mg/kg-day.

And the NOEC [5]?
Its NOEC is 20 µg/L.

What about the LC50 [6] of the same compound?
Its LC50 is 0.171 µg/mL (≈ 0.711 µM).

And the NOEC [7]?
The NOEC was 1.1 µg/L.

And the LD50 ([8]; acute, oral, mortality)?
The LD50 was 1800 mg/kg-day.

What about the NOAEL ([8]; chronic) of the same compound?
Its NOAEL is 1.6 mg/kg-day.

And the NOAEL ([8]; chronic, duration: 2 years, body weight)?
The NOAEL was 1.5 mg/kg-day.

And the NOAEL ([8]; reproduction developmental, body weight)?
Its NOAEL is < 7.5 mg/kg-day and 3 mg/kg-day.

What about the NOEC [9] of the same compound?
Its NOEC is 8.45 mg/kg.

What about the LR50 [10] of the same compound?
Its LR50 is 511 g/ha.
